Experiments:
[1] = target: T1, Human immunodeficiency virus type 1 integrase (Human immunodeficiency virus 1, UniProt Q7ZJM1); test: Inhibition of HIV1 recombinant integrase 3' processing activity using [32P]-radiolabeled full-length DNA as substrate after 1 hr by densitometric analysis
[2] = target: T1, Human immunodeficiency virus type 1 integrase; test: Inhibition of HIV1 recombinant integrase strand transfer activity using [32P]-radiolabeled full-length DNA as substrate after 1 hr by densitometric analysis
[3] = target: T1, Human immunodeficiency virus type 1 integrase; test: Inhibition of HIV1 recombinant integrase strand transfer activity using precleaved LTR DNA as substrate after 1 hr by densitometric analysis
[4] = target: Human immunodeficiency virus type 1 integrase (Human immunodeficiency virus 1) (UniProt Q7ZJM1); test: Selectivity ratio of IC50 for HIV1 recombinant integrase strand transfer activity using precleaved LTR DNA as substrate to IC50 for HIV1 recombinant integrase strand transfer activity using [32P]-radiolabeled full-length DNA as substrate
Chain of Human immunodeficiency virus type 1 integrase (Human immunodeficiency virus 1) (Q7ZJM1 as listed by the source): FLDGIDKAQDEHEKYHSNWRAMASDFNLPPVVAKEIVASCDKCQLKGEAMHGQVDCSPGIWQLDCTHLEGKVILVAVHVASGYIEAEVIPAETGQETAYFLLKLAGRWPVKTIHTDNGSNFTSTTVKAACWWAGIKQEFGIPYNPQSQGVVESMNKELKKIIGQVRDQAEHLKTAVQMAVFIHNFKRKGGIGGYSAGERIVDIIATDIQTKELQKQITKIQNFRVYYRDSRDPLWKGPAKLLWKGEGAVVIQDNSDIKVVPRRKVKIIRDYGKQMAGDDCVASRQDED

T1 sequence (Q7ZJM1 whole entry): as the sequence (Q7ZJM1 as listed by the source) above

Row | Compound | IC50 [1] [µM] | IC50 [2] [µM] | IC50 [3] [µM] | Ratio IC50 [4]
1 | CN(C)C(N(C)C)N(C)C | > 100 | > 100 | – | –
2 | CCCCCCCCCCn1ccnc1 | > 333 | > 333 | – | –
3 | CCCCCCCC[N+](C)(CCCCCCCC)CCCCCCCC [listing 1 of 2 here] | 6.8 | 2.8 | – | –
4 | CCCCCCCCN(C)CCCCCCCC | > 333 | > 333 | – | –
5 | CCCCCCCCCCCCCCCCn1cc[n+](C)c1 | 2.5 | 1.3 | 5.6 | 3
6 | CCCCCCCCCCCCCCCCCC[n+]1ccn(C)c1.O=S(=O)([N-]S(=O)(=O)C(F)(F)F)C(F)(F)F | 1.6 | 1.53 | 4 | –
7 | CCCCCCCCCCCCCCCCCC[n+]1ccn(C)c1 [listing 1 of 2 here] | – | 1.4 | – | –
8 | CCCCCCCCN(CCCCCCCC)CCCCCCCC | > 333 | > 333 | – | –
9 | CCCCCCCCCCCCCCCCCCn1ccnc1 | > 333 | > 333 | – | –
10 | CCCCCCCCCCCCCCCCCCPCCCCCCCCCCCCCC.O=S(=O)(NS(=O)(=O)C(F)(F)F)C(F)(F)F (stereo not given) | > 100 | > 100 | – | –
11 | CCCCCCCC[N+](C)(CCCCCCCC)CCCCCCCC [listing 2 of 2 here] | 9 | 6.12 | – | –
12 | CCCCCCCC[N+]1(C)CCCC1 | > 100 | > 100 | – | –
13 | CCCCCCCCCCCCCCn1cc[n+](C)c1 | 55.2 | 20.2 | – | –
14 | C[N+](C)(C)C.O=C1O[B-]2(OC1=O)OC(=O)C(=O)O2 | > 333 | 310 | – | –
15 | CCCCCCCC[N+](C)(CCCCCCCC)CCCCCCCC.O=S(=O)([N-]S(=O)(=O)C(F)(F)F)C(F)(F)F | > 100 | 6.6 | – | –
16 | CCCCCCCC[n+]1ccn(C)c1 | > 100 | > 100 | – | –
17 | C[N+](C)(C)C.FC(F)(F)C(F)(F)[P-](F)(F)(F)(C(F)(F)C(F)(F)F)C(F)(F)C(F)(F)F | 138 | 38.5 | – | –
18 | CCCCCCCCCCn1cc[n+](C)c1 | > 333 | > 333 | – | –
19 | CCCCCCCCCCCCn1cc[n+](C)c1 | 72 | 36.6 | – | –
20 | CCCCCCCC[n+]1ccccc1 | > 100 | > 100 | – | –
21 | CCCCCCCCCCCCCCCCCC[n+]1ccn(C)c1 [listing 2 of 2 here] | 1.7 | 1.1 | 3.5 | –
